Results published in the CheMixHub ionic liquid set.

Assay: xn = mol fraction of the nth substance listed

C[N+](C)(CCCS(=O)(=O)O)C1CCCCC1.Cc1ccc(S(=O)(=O)[O-])cc1 + CO
viscosity [mPa·s], 101 kPa
Conditions | 303.15 K | 308.15 K | 313.15 K | 318.15 K | 323.15 K | 328.15 K
x1 = 0.01863 | 0.9656 | 0.8903 | 0.8173 | 0.7622 | 0.7053 | 0.6527
x1 = 0.04828 | 2.131 | 1.956 | 1.779 | 1.61 | 1.487 | 1.37
x1 = 0.1023 | 7.675 | 6.646 | 5.931 | 5.247 | 4.648 | 4.072
x1 = 0.2332 | 82.39 | 66.75 | 52.34 | 42.16 | 34.08 | 28.69
x1 = 1 | 113700 | 56930 | 32650 | 17830 | 10190 | 6293

CS(C)=O + COCCCC[n+]1ccn(C)c1.C[C@@H](O)[C@H](N)C(=O)[O-]
100 kPa, x2 = 0
Conditions | viscosity [mPa·s]
288.15 K | 2.47
293.15 K | 2.21
298.15 K | 1.99
303.15 K | 1.81
308.15 K | 1.65
313.15 K | 1.51
318.15 K | 1.39

CS(C)=O + COCCCC[n+]1ccn(C)c1.NCC(=O)[O-]
Conditions | viscosity [mPa·s]
308.15 K, 100 kPa, x2 = 0 | 1.65

CCCC[n+]1ccn(C)c1.[Br-] + COCCO
viscosity [mPa·s], 100 kPa
Conditions | 298.15 K | 303.15 K | 308.15 K | 313.15 K
x1 = 0.4 | – | – | 43.9 | 28
x1 = 0.5 | – | 101 | – | 40.3
x1 = 0.7002 | 350 | – | – | 75

COS(=O)(=O)[O-].Cn1cc[n+](C)c1 + COCCO
viscosity [mPa·s], 101 kPa
Conditions | x1 = 0.0007603 | x1 = 0.001899 | x1 = 0.003034 | x1 = 0.004168 | x1 = 0.005298 | x1 = 0.006426
293.15 K | 2.01 | 2.03 | 2.05 | 2.07 | 2.09 | 2.11
303.15 K | 1.4 | 1.42 | 1.44 | 1.46 | 1.48 | 1.5
313.15 K | 0.97 | 0.99 | 1.01 | 1.03 | 1.05 | 1.07

CCCC[P+](CC)(CC)CC.Cc1ncc([N+](=O)[O-])[n-]1 + COCCOCCOCCOCCOC
100 kPa
Conditions | viscosity [mPa·s]
278.15 K, x2 = 0.048 | 1540
283.15 K, x2 = 0.102 | 631
283.15 K, x2 = 0.401 | 99
283.15 K, x2 = 0.501 | 57
298.15 K, x2 = 0.102 | 208
298.15 K, x2 = 0.201 | 130
308.15 K, x2 = 0.048 | 159
313.15 K, x2 = 0.102 | 90
